Laboratory results from patent US20170190705A1, “Compositions and Methods for Inhibiting BMP” (THE BRIGHAM AND WOMAN'S HOSPITAL, INC., priority 2014, published 2017).
Read-outs that look alike come from different tables or passages of the source.

Assays:
PRKG2 = target: T1, PRKG2 (Homo sapiens, UniProt Q13237); test: Kinome profiling PRKG2; format: biochemical; details: read-out: Inhibitory activity PRKG2; for inhibition at 0.1 µM: 100 nM
T1 sequence (Q13237 1-762): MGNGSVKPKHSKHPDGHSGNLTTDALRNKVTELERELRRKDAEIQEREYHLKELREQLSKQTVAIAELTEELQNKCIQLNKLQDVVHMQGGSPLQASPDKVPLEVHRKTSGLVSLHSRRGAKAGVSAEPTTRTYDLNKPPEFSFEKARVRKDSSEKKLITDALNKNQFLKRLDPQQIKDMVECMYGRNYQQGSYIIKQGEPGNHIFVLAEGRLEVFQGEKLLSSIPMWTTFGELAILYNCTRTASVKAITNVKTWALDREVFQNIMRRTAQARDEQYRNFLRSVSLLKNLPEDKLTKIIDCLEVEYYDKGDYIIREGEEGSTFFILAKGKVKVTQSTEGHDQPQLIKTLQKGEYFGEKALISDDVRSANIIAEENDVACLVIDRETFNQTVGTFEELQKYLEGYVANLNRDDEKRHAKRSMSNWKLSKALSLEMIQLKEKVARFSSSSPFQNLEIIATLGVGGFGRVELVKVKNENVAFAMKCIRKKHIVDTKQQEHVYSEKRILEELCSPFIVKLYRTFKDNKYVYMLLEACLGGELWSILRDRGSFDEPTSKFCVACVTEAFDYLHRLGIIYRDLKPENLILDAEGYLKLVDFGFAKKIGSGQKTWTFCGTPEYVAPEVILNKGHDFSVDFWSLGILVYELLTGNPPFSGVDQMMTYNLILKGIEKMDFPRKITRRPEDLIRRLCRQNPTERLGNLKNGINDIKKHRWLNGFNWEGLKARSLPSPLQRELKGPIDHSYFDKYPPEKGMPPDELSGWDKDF
Experimental: (§1) . The kinome-wide selectivity was determined following the methods previously reported by Mohedas et al., ACS Chem Biol 2013, 8, 1291-1302 and Sanvitale et al., PLoS One 2013, 8, e62721.

TRKA = TRKA (Homo sapiens, UniProt P04629); test: Kinome profiling TRKA; format: biochemical; details: read-out: Inhibitory activity TRKA; for inhibition at 0.1 µM: 100 nM
Chain of TRKA (P04629 33-796): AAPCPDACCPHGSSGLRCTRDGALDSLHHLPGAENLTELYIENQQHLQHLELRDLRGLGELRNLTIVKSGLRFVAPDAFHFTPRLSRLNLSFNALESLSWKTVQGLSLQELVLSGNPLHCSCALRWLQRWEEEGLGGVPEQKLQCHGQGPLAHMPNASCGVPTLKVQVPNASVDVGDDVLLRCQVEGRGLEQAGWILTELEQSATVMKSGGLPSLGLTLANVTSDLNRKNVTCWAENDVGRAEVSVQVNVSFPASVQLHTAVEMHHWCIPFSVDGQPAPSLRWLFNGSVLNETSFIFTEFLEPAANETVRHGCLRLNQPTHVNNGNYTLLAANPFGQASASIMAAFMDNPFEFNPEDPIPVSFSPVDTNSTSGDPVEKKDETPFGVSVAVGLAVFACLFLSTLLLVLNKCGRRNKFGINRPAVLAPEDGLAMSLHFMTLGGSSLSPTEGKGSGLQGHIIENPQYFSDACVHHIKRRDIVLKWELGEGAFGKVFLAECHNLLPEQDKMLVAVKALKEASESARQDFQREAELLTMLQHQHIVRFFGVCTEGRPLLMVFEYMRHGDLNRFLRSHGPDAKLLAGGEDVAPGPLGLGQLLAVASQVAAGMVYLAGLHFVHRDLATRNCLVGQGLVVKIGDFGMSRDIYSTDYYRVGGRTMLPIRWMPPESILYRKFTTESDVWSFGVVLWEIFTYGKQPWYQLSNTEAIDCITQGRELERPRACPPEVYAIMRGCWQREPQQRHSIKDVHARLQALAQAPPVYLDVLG
Experimental: as §1

IKK-α = target: T2, IKK-α (Homo sapiens, UniProt O15111); test: Kinome profiling IKK-α; format: biochemical; details: read-out: Inhibitory activity IKK-α; for inhibition at 0.1 µM: 100 nM
T2 sequence (O15111 1-745): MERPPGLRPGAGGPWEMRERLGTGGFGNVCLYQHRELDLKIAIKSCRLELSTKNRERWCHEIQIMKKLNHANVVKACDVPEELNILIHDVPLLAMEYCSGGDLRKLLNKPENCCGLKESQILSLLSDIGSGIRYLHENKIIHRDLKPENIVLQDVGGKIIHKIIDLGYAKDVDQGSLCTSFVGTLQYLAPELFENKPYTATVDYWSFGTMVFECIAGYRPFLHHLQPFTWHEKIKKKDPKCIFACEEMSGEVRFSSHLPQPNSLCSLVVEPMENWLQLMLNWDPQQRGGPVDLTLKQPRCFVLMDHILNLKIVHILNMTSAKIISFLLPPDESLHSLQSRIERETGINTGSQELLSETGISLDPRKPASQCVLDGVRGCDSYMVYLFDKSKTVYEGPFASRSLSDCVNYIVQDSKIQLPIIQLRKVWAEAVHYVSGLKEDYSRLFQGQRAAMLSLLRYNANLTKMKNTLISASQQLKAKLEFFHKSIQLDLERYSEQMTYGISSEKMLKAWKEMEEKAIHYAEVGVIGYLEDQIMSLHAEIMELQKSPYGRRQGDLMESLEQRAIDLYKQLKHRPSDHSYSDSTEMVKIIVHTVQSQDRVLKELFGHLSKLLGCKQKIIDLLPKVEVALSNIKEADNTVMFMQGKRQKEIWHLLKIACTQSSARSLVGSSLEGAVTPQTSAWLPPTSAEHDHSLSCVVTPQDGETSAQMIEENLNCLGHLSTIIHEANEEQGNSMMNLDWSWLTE
Experimental: as §1

LRRK2-G2019S = LRRK2-G2019S (Homo sapiens, UniProt Q5S007, G2019S); test: Kinome profiling LRRK2-G2019S; format: biochemical; details: read-out: Inhibitory activity LRRK2-G2019S; for inhibition at 0.1 µM: 100 nM
Chain of LRRK2-G2019S (Q5S007 whole entry G2019S): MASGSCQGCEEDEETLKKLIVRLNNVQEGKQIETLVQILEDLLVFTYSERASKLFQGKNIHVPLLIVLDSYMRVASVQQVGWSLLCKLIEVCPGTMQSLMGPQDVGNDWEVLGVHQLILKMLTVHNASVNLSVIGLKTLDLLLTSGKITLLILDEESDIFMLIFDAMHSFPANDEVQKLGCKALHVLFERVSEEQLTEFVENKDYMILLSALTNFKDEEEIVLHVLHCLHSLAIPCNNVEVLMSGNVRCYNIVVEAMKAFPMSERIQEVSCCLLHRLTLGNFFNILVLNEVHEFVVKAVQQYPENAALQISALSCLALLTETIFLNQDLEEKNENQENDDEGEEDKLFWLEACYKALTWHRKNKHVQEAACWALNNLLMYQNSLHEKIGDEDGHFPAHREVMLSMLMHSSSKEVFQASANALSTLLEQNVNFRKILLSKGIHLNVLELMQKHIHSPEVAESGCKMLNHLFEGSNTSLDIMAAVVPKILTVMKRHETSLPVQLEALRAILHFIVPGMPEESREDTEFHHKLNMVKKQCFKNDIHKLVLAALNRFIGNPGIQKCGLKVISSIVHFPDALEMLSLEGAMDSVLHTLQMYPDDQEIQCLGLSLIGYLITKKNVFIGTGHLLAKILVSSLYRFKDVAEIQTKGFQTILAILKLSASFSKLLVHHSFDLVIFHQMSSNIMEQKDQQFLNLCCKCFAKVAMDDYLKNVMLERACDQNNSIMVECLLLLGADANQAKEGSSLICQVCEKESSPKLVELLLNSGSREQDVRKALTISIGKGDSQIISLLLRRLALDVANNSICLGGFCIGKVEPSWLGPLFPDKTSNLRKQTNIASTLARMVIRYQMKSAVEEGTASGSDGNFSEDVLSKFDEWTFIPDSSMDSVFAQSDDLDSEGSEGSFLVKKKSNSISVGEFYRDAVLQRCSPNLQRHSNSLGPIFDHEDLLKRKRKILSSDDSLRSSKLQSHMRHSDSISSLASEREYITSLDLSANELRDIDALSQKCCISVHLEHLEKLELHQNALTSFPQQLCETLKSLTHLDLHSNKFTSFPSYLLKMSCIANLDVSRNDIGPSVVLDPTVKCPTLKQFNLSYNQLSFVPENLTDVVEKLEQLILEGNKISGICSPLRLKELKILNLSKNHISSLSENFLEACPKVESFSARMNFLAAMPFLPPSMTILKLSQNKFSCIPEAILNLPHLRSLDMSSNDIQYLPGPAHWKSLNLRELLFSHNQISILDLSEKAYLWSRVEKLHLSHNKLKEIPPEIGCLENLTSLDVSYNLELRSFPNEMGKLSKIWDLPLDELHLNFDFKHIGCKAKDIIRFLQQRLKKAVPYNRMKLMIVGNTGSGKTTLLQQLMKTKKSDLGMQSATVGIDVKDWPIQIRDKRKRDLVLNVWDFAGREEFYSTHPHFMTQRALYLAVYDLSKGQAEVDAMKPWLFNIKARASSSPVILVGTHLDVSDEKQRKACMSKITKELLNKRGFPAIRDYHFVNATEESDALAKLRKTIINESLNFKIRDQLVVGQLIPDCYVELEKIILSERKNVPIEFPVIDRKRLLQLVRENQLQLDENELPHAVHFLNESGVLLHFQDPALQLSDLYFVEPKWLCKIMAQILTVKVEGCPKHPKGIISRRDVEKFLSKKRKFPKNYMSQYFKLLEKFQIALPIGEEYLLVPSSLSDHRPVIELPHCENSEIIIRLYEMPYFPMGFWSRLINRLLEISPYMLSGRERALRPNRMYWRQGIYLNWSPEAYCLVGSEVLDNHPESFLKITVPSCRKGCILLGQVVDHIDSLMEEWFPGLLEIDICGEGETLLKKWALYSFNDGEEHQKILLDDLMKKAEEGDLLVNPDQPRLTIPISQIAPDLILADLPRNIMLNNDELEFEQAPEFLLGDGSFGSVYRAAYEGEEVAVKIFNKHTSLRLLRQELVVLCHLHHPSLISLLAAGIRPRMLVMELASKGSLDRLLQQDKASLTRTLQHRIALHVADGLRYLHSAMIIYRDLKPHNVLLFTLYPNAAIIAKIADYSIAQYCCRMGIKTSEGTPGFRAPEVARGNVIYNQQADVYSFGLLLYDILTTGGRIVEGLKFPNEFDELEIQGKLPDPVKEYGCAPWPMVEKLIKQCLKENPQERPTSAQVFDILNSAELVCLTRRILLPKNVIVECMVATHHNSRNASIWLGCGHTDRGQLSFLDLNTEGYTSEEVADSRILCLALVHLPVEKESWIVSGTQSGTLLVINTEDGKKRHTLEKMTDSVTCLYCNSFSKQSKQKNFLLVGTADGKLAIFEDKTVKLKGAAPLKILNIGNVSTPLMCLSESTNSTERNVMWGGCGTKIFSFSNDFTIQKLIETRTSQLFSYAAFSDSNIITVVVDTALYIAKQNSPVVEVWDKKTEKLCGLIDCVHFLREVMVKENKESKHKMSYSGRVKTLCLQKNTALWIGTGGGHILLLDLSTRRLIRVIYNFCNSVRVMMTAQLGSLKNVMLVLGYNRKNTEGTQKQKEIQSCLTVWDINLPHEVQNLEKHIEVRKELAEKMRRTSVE
Experimental: as §1

AURORA-A = target: T3, AURORA-A (Homo sapiens, UniProt O14965); test: Kinome profiling AURORA-A; format: biochemical; details: read-out: Inhibitory activity AURORA-A; for inhibition at 0.1 µM: 100 nM
T3 sequence (O14965 1-403): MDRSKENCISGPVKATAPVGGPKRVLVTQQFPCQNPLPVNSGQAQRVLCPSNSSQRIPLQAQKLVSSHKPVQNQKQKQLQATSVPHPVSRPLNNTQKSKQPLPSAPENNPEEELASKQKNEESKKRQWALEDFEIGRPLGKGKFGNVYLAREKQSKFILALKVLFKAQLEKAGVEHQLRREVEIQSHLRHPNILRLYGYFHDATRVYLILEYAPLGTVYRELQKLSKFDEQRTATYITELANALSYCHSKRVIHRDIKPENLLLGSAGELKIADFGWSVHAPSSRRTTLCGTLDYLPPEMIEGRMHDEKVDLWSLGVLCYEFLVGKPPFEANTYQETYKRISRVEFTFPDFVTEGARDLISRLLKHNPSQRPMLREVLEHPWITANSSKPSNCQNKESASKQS
Experimental: as §1

[1] = test system: HePG2 hepatocarcinoma cells; format: cell-based; details: human
Experimental: The cells were incubated for 2 h (37° C. and 5% CO2) and allowed to settle and attach. Compounds of interest or DMSO were diluted in DMEM and added at final compound concentrations of 1 μM, 10 μM, and 100 μM. Cells were incubated for 4 hours and 24 hours after which the media was discarded. Cells were lysed by adding 30 μL of passive lysis buffer (Promega) and shaken at RT for 15 min. Cell viability was determined by quantifying the ATP present in each well by adding 10 μL of CellTiter-Glo (Promega) per well and measuring the light output Spectramax L luminometer (Molecular Devices) with an integration time of one second per well. Data was normalized to 100% viability for cells receiving only DMSO without any concurrent compound.

| SMILES | inhibition at 0.1 µM (PRKG2) [%] | inhibition at 1 µM (PRKG2) [%] | inhibition at 0.1 µM (TRKA) [%] | inhibition at 1 µM (TRKA) [%] | inhibition at 0.1 µM (IKK-α) [%] | inhibition at 1 µM (IKK-α) [%] | inhibition at 0.1 µM (LRRK2-G2019S) [%] | inhibition at 1 µM (LRRK2-G2019S) [%] | inhibition at 0.1 µM (AURORA-A) [%] | inhibition at 1 µM (AURORA-A) [%] | Cell viability ([1]; 4 h, 1 μM) [%] | Cell viability ([1]; 4 h, 10 μM) [%] | Cell viability ([1]; 4 h, 100 μM) [%] | Cell viability ([1]; 24 h, 1 μM) [%] | Cell viability ([1]; 24 h, 10 μM) [%] | Cell viability ([1]; 24 h, 100 μM) [%] |
| --- | --- | --- | --- | --- | --- | --- | --- | --- | --- | --- | --- | --- | --- | --- | --- | --- |
| COc1cc(-c2cc(-c3ccc(N4CCNCC4)cc3)cnc2C)cc(OC)c1OC [Compound 10, 1-(4-(6-methyl-5-(3,4,5-trimethoxyphenyl)pyridin-3-yl)phenyl)piperazine] | 0 | 4 | 2 | 1 | 3 | 4 | 4 | 11 | 2 | 3 | 91 | 100 | 88 | 92 | 78 | 77 |
| COc1cc(-c2cc(-c3ccc(N4CCNCC4)cc3)cnc2N)cc(OC)c1OC [Compound 15, 5-(4-(piperazin-1-yl)phenyl)-3-(3,4,5-trimethoxyphenyl)pyridin-2-amine] | 0 | 1 | 5 | 5 | -1 | -2 | 16 | 57 | 2 | 3 | 95 | 103 | 103 | 96 | 96 | 23 |
